The results in this text go back to publication PMC10122656, “Siglec-6 mediates the uptake of extracellular vesicles through a noncanonical glycolipid binding pocket” (Nature Communications, 2023).

“And” between values parts separate entries of the source, which are not always exact repeats. Equal values may be shown once.

The target in one assay is T1, Siglec-5 WT CHO cells (Homo sapiens, UniProt O15389).
T1 construct: expressed in transfected cells
T1 sequence (O15389 17-551): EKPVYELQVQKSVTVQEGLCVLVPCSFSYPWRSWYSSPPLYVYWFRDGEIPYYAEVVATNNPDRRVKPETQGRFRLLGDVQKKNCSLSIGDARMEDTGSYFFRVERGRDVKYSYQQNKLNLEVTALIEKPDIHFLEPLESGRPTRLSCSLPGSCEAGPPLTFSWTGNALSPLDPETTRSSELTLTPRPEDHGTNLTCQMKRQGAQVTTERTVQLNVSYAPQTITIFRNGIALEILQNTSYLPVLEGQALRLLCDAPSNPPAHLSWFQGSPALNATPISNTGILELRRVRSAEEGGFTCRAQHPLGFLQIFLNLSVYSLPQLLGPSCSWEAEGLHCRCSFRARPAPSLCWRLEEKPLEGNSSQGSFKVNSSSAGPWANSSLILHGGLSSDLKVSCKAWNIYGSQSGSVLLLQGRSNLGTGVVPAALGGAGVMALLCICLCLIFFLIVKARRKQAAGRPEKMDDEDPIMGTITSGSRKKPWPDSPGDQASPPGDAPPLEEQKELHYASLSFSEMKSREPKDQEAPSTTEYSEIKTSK
The assay is described as follows: Cell assay (liposome/EV binding, flow cytometry). It counts as cell-based. Particulars: for log10(MFI AF647) of GLL relative to log10(MFI AF647) of the same GLL against UT CHO cells (Fig. 2a): Sig-5 WT†, † after treatment of cells with neuraminidase, 3 mol% ganglioside liposomes, replicates; for GLL binding to Siglec-5 (in words): cell assay, optimized liposomal formulation. On the procedure:
(§1) Stock lipids (DSPC, Cholesterol, PEG45–DSPE) solutions were prepared by solvating the lipids in chloroform. An appropriate volume of each lipid solution was transferred to a glass test tube to reach the desired mol% of the component. The chloroform was then removed under N2 gas to yield a lipid thin film. Once dry, 100 µL of DMSO was added to the lipid-containing test tube and then the functional lipids (ganglioside, AF647–PEG45–DSPE, Siglec ligand–PEG45–DSPE, pHrodo–PEG45–DSPE, NGL) was added from their respect DMSO stock solution. The lipid mixture was then stored at −80 °C until completely frozen at which point excess DMSO was removed via lyophilization. Dry lipids were then stored at −80 °C until they were extruded. Lipid suppliers can be found in Supplementary Table 4.
(§2) Dry lipids were then hydrated in 1 mL of PBS. The lipids were then sonicated in a bath sonicator in a cycle of 1 min on, 5 min off for a total of five cycles. Liposomes were then extruded using an Avanti mini extruder first using an 800 nm filter and then a 100 nm filter yielding liposomes that were 130 ± 35 nm (Supplementary Table 5) measured using a Malvern Panalytical Zetasizer Nano S. Liposomes were stored at 4 °C.
(§3) 200,000 cells/well were plated into a 96-well U-bottom microplate and centrifuged at 300 × g for 5 min. The cells were then resuspended in 50 µL of 50 µM liposome/50 µg/mL (protein concentration) of EV solution in DMEM F12 5% FBS and incubated at 37 °C for 30 min. Excess liposomes were then removed via centrifuged at 300 × g for 5 min followed by washing the cells with FACS solution. The cells were then resuspended in (1:250 V/V) anti-Siglec-flow buffer (1% V/V FBS, 500 µM, EDTA Hank’s Balanced Salt Solution pH 7.4), solution and left to rest on ice for 30 min. The cells were then centrifuged again at 300 × g for 5 min and the cells were resuspended in FACS buffer solution and were then ready for analysis by flow cytometry. Information regarding antibody clone, catalog number supplier, label isotype, and dilution can be found in Supplementary Table 6. The Siglec-positive cells were gated on for liposome-binding analysis (Supplementary Fig. 1b).
(§4) Flow cytometry measurements were collected on a 5-laser Fortessa X-20 (BD Bioscience). All the resulting data were analyzed using FlowJo (10.5.3) software (BD Biosciences).
Cells were harvested and resuspended in complete media with either Neuraminidase A or S. The cells were then placed in a 37 °C shaking incubator for 1 h. The cells were then washed with complete media and then the liposome binding assay was performed as described above.
Background: Flow cytometry measures light scatter and fluorescence of single cells or particles in a stream.

Assay [1] relates to untransfected (UT) CHO cells. The assay is described as follows: Cell assay (liposome/EV binding, flow cytometry). Particulars: for log10(MFI AF647) of GLL relative to log10(MFI AF647) of the same GLL against UT CHO cells (Fig. 2a): 3 mol% ganglioside liposomes, replicates. It counts as cell-based, Chinese Hamster. On the procedure:
as §1, §2, §3, §4

The next assay has as its system Siglec-1-Fc R116A. Kind of assay: Ganglioside ELISA. Particulars: Figure 2c, replicates. Type of assay: binding, human. On the procedure:
Siglec-Fc constructs designed by Rodrigues et al.[30] were used in this work. Siglec-Fc constructs were expressed using WT CHO cells in cell culture media as described above with 1% HEPES. Cells incubated as described above for one-week post confluency. The supernatant was harvested and stored at 4 °C.
The purification was heavily inspired by Rodrigues et al.[30]. The purification of the Siglec-Fcs from supernatant began with Ni^2+ affinity chromatography using an AKTA FPLC equipped with a HisTrap Excel column (GE). The column was equilibrated with fifteen column volumes (CVs) of equilibrium buffer (500 mM NaCl, 20 mM NaPO4H2, pH 7.4). The Siglec-Fc containing supernatant was then loaded in its entirety onto the column. The column was then washed with fifteen CVs of wash buffer (500 mM NaCl, 30 mM imidazole, 20 mM NaPO4H2, pH 7.4). The Siglec-Fc was then eluted in 20 in 1 mL fractions with twenty CVs of elution buffer (500 mM NaCl, 500 mM imidazole, 20 mM NaPO4H2, pH 7.4). […] A Strep-Tactin column (IBA life sciences) was washed with fifteen CVs of buffer W. The Siglec-Fc-buffer W solution was then loaded in its entirety onto the column. […] Fractions containing Siglec-Fc were pooled and dialyzed against PBS to remove any d-Desthiobiotin. After dialysis, Siglec-Fcs were concentrated using an ultra-centrifugal device (30 kDa MWCO) and aliquoted into 5 µg aliquots, and frozen. The Siglec-Fcs were then lyophilized overnight, and the lyophilized Siglec-Fcs were stored at −20 °C.
Our ELISA approach was carried out similarly to previous work by Rapoport[12] and Yamakawa[44]. Ganglioside ethanol solutions (10 µM) were prepared and then transferred in 50 µL increments to a 96-well microplate. The ethanol was removed by drying the plates overnight at room temperature. The plates were then washed with PBS, dried, and then blocked with 5% (m/V) BSA PBS for 1 h. The plates were then washed with PBS and then 2 µg/mL Siglec-Fc precomplexed to Strep-Tactin (2 Siglec-Fc:1 Strep-Tactin monomer) horse radish peroxidase was added to the microplate. The complex was incubated with the plate at room temperature for 2 h. The unbound complexes were then removed by washing in PBS and the plate was developed with Sera care TMB solution. The amount of binding was then quantified by using the background (microplate well with no ligand) subtracted absorbance at 450 nm using a Molecular Devices SpectraMAX ® iD5.
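Throughout, for liposome binding, fluorescence signal (replicates): AF647 fluorescence intensity from 0.1 mol% AF647–PEG45–DSPE in liposomes.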

Chain of Siglec-1-Fc R116A (Q9BZZ2 20-136 R116A limits assumed): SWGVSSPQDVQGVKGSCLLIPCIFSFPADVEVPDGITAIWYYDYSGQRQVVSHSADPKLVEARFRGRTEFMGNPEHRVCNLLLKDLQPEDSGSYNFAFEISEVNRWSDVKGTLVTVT

As to GD1b, on Siglec-5 WT CHO cells, the “log10(MFI AF647) of GLL relative to log10(MFI AF647) of the same GLL against UT CHO cells (Fig. 2a)” value was 0.26 and 0.29 and 0.23; the “GLL binding to Siglec-5 (in words)” value is “novel interactions were observed”. The “log10(MFI AF647) of GLL relative to log10(MFI AF647) of the same GLL against UT CHO cells (Fig. 2a)” value in assay [1] (UT) was 0.01 (2×) and -0.01 (2×). Further, the “ganglioside ELISA signal, Siglec-1 R” value with Siglec-1-Fc R116A was 0.11 and 0.13 and 0.17.

As to GM1, at Siglec-5 WT CHO cells, the “log10(MFI AF647) of GLL relative to log10(MFI AF647) of the same GLL against UT CHO cells (Fig. 2a)” value was 0.35 (2×) and 0.26; the “GLL binding to Siglec-5 (in words)” value is listed as “novel interactions were observed”. Further, in assay [1] (UT), the “log10(MFI AF647) of GLL relative to log10(MFI AF647) of the same GLL against UT CHO cells (Fig. 2a)” value was 0.07 and -0.03 (2×) and -0.01. Besides, the “ganglioside ELISA signal, Siglec-1 R” value with Siglec-1-Fc R116A was 0.07 and 0.08 and 0.1 and 0.14.

As for GD3, the “log10(MFI AF647) of GLL relative to log10(MFI AF647) of the same GLL against UT CHO cells (Fig. 2a)” value was 0.28 and 0.26 and 0.19 on Siglec-5 WT CHO cells; 0.01 (2×) and -0.01 (2×) in assay [1] (UT). Moreover, the “ganglioside ELISA signal, Siglec-1 R” value with Siglec-1-Fc R116A is 0.22 and 0.18 and 0.24 and 0.28.

As for GM3, the “log10(MFI AF647) of GLL relative to log10(MFI AF647) of the same GLL against UT CHO cells (Fig. 2a)” value at Siglec-5 WT CHO cells was -0.05 (2×) and -0.08; in assay [1] (UT) it was 0.01 (2×) and -0.01 and 0. For the same molecule, the “ganglioside ELISA signal, Siglec-1 R” value in the assay on Siglec-1-Fc R116A was 0.33 and 0.4 and 0.43 and 0.46.

In the case of GM2, the “log10(MFI AF647) of GLL relative to log10(MFI AF647) of the same GLL against UT CHO cells (Fig. 2a)” value is 0.12 and 0.11 and 0.15 on Siglec-5 WT CHO cells; 0.1 and 0.05 (2×) and 0.06 in assay [1] (UT). Besides, in the assay on Siglec-1-Fc R116A, the “ganglioside ELISA signal, Siglec-1 R” value is 0.07 and 0.09 and 0.15 and 0.11.

Regarding GM4, the “log10(MFI AF647) of GLL relative to log10(MFI AF647) of the same GLL against UT CHO cells (Fig. 2a)” value on Siglec-5 WT CHO cells is 0.08 (2×) and 0.05; in assay [1] (UT) it was 0.02 and -0.01 (2×) and 0. Besides, in the assay on Siglec-1-Fc R116A, the “ganglioside ELISA signal, Siglec-1 R” value was 0.18 and 0.21 and 0.26 and 0.27.

As for `CCCCCCCCCCCCCCCCOCC(COCCCCCCCCCCCCCCCC)OCc1cn(CCO[C@@H]2O[C@H](CO)[C@@H](O[C@@H]3O[C@H](CO)[C@H](O)[C@H](O[C@]4(C(=O)O)C[C@H](O)[C@@H](NC(C)=O)[C@H]([C@H](O)[C@H](O)CO)O4)[C@H]3O)[C@H](O)[C@H]2O)nn1` [GM3-DAG], the “liposome binding, fluorescence signal (replicates)” value in assay [1] (sheet Figure S22b, CHO) is 267 and 269 and 241 and 218; in assay [1] (sheet Figure S26a, 3% GM3-DAG liposomes, Untrans.) it was 298 and 293 and 301 and 291; in assay [1] (sheet Figure S28b, 3% GM3-DAG liposomes, UT), 268 and 273 and 248 and 260; in assay [1] (sheet Figure S26d, CHO), 38 and 35 and 41.

GQ1b: the “log10(MFI AF647) of GLL relative to log10(MFI AF647) of the same GLL against UT CHO cells (Fig. 2a)” value on Siglec-5 WT CHO cells was 0.86 (2×) and 0.94; in assay [1] (UT) it was 0.01 and -0.02 (2×) and 0.03. For the same molecule, in the assay on Siglec-1-Fc R116A, the “ganglioside ELISA signal, Siglec-1 R” value is -0.01 and -0.02 and 0.

For the molecule GD1a, the “log10(MFI AF647) of GLL relative to log10(MFI AF647) of the same GLL against UT CHO cells (Fig. 2a)” value is 0.3 and 0.33 and 0.29 at Siglec-5 WT CHO cells; 0.01 and -0.05 and 0 and 0.04 in assay [1] (UT). Further, the “ganglioside ELISA signal, Siglec-1 R” value with Siglec-1-Fc R116A was 0.06 and 0.08 and 0.11 and 0.09.

With GT1b, the “log10(MFI AF647) of GLL relative to log10(MFI AF647) of the same GLL against UT CHO cells (Fig. 2a)” value on Siglec-5 WT CHO cells is 0.58 and 0.64 and 0.55; in assay [1] (UT), 0 (2×) and 0.01 and -0.01. Moreover, the “ganglioside ELISA signal, Siglec-1 R” value with Siglec-1-Fc R116A is 0.02 and 0.04 and 0.03.
